How the values were obtained:
Test in all cases: cells
Type in all cases: cell-based
[1] = system: human bronchial epithelial cell line HBE; details: for IC50: Homo sapiens, HBE, read-out: IC50 against HBE
[2] = system: human non-small-cell lung cancer A549 cells; details: A549, read-out: IC50 against A549
[3] = system: human non-small-cell lung cancer H460 cells; details: NCI-H460, read-out: IC50 against H460

SMILES	IC50 [1]	IC50 [2]	IC50 [3]	selectivity towards cancerous cell lines over non-cancerous cell line ([1]; A549/H460 versus HBE, from IC50 values)
C=C1[C@H]2C[C@@]3([C@@H]1O)[C@@H](CC2=O)[C@]12[C@@H]4C[C@H]3[C@H]1N(CC)C[C@]4(C)CC[C@@H]2O [Compound 5, songorine]	32.4 ± 2.62 µM	21.2 ± 0.84 µM	25.1 ± 0.59 µM	
O=c1[nH]cc(F)c(=O)[nH]1 [Compound 5-FU, 5-fluorouracil, reference compound]	8.93 ± 6.05 µM	12.5 ± 8.81 µM	6.16 ± 1.8 µM	
CCN1C[C@]2(C)CC[C@H](O)[C@@]34C5C[C@@H]6[C@@H](OC)C[C@@](O)(C5[C@H]6O)[C@@H](CC23)C14 (stereo partly shown) [Compound 9, karacoline]	49.7 ± 8.11 µM	8.28 ± 0.41 µM	9.69 ± 0.4 µM	higher selectivity
CCN1C[C@]2(COC)CC[C@H](O)[C@@]34C5C[C@@H]6[C@@H](OC)C[C@](O)(C(CC23)C14)C5[C@H]6OC(C)=O (stereo partly shown) [Compound 30, condelphine]	31.4 ± 6 µM	16.4 ± 2.38 µM	16 ± 1.15 µM	
COC[C@@]12CC[C@H](OC)[C@]34C(C([C@H](OC)[C@H]13)[C@]1(OC(C)=O)[C@H]3[C@@H](OC(=O)c5ccccc5)[C@](O)(C[C@H]34)[C@@H](OC)[C@@H]1O)N(C)C2 [Compound 33, hypaconitine]	32.7 ± 4.56 µM	14.3 ± 1.79 µM	16.5 ± 2.22 µM	
CCN1C[C@]2(COC)CC[C@H](OC)[C@]34C1C([C@H](OC)[C@H]23)[C@]1(OC(C)=O)[C@H]2[C@@H](OC(=O)c3ccccc3)[C@](O)(C[C@H]24)[C@@H](OC)[C@@H]1O [Compound 34, deoxyaconitine]	31 ± 4.8 µM	14.9 ± 4.02 µM	14.6 ± 1.32 µM	

— paper PMC9037614 (RSC Advances, 2021)
